These results are taken from patent US9187413B2, “Peripherally restricted FAAH inhibitors” (The Regents of the University of California, priority 2010, dated 2015).

Like-named read-outs stand apart in the source and are kept apart here.

One data set has as its system Fos protein. The data set is described as follows: Formalin-induced Fos expression in lumbar spinal cord. It counts as in vivo. Conditions: rats, URB937 1 mg-kg^-1, i.p., lumbar spinal cord. The protocol:
Fos expression. We measured Fos protein levels by quantitative immunocytochemistry^5 on slices of lumbar (L4/L5) spinal cord from male Sprague-Dawley rats.
Fos immunohistochemistry Two hours after formalin injection into the dorsal paw, rats received a lethal dose of Nembutal (50 mg-mL^−1). They were perfused through the heart with 100 mL of 1% heparinized phosphate buffered saline (PBS) followed by 300 mL of ice-cold 4% paraformaldehyde. The lumbar-sacral region of the spinal cord was collected from each rat. Spinal cords were post fixed in 4% paraformaldehyde at 4° C. for 24 h and then cryoprotected in 30% sucrose at 4° C. for 24-48 hours. Spinal cords were cryostat-cut into 40 μm transverse sections at the level of the lumbar enlargement (L4/L5). Free floating alternating sections were kept in a series of wells filled with PBS. Every fourth section was processed for Fos immunoreactivity to ensure that the same cell would not be counted twice. Endogenous peroxidases were inactivated by incubation in hydrogen peroxide. […]
Selection of sections and quantification of the number of Fos-positive cells was performed by an observer blinded to experimental conditions. […] Using Image J, Fos expressing cells were counted in each subdivision, regardless of staining intensity, by an observer blinded to experimental treatments.

Data set [1] can be described thus: Drug transport assay through polarized TC7 monolayers. It counts as in vitro ADME. The conditions noted are these: human. On the procedure:
(§1) Drug transport assays. Assays were performed at Cerep Inc. (Redmond, Wash.), following protocols outlined in the company's web-site (http://www.cerep.fr).
(§2) Drug transport assays Transport assays were conducted at Cerep Inc. (Redmond, Wash.). Cellular permeability was determined in the apical (A) to basal (B) and the B to A direction in the presence of 10 μM compound in Hanks' buffered salt solution containing 1% dimethylsulfoxide (DMSO). Efflux ratios were calculated as the ratio of B-A to A-B permeabilities.

The subject of a further data set is Pgp. Described as above. It counts as in vitro ADME. Conditions: human, Caco-2, with verapamil (100 μM); TC7 monolayers, Pgp inhibitor verapamil (100 μM); read-out: B-A permeability with verapamil. The protocol:
as §1, §2
(Caco-2 monolayers are a common model of the intestinal barrier.)

The next data set deals with FAAH (Mus musculus (Mouse), UniProt O08914). The data set is described as follows: FAAH inhibition ex vivo after systemic administration in mice. Conditions: mouse, ip. The protocol:
Drug preparation for in vivo experiments Drugs were dissolved in polyethylene glycol 400/Tween-80/saline (1/1/18; by volume) and administered by i.p. (5-10 mL-kg^−1) or s.c. injection (10 mL-kg^−1).

FAAH, sequence (O08914 whole entry): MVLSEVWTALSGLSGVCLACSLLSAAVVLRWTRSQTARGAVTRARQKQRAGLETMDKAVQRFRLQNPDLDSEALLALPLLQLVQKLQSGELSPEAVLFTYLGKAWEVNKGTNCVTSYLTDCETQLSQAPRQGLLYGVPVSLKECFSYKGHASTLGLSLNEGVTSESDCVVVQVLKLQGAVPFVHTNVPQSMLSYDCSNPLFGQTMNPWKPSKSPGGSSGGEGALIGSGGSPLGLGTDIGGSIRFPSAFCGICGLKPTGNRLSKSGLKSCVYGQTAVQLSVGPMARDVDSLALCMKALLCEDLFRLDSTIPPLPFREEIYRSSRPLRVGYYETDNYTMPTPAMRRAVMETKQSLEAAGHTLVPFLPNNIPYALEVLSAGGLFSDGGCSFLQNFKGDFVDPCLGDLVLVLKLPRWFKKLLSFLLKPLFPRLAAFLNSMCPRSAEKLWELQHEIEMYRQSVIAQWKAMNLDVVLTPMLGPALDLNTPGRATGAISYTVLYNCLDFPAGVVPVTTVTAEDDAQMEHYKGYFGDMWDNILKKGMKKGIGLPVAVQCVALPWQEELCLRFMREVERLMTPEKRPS

Take `NC(=O)c1cccc(-c2cc(OC(=O)NC3CCCCC3)ccc2O)c1` [Compound 1b, cyclohexylcarbamic acid 3′-carbamoyl-6-hydroxybiphenyl-3-yl ester]: the “formalin-induced Fos expression” value with Fos protein is reported as “lowered the Fos response to formalin”. In addition, the recovery at 10 μM in data set [1] (Caco-2, TC7 monolayers, 10 μM compound, read-out: % recovery A-B) is 83%; in data set [1] (Caco-2, TC7 monolayers, 10 μM compound, read-out: % recovery B-A), 95%; in data set [1] (Caco-2, with verapamil 100 μM, TC7 monolayers, verapamil (100 μM), read-out: % recovery B-A with verapamil), 94%. Further, the Papp A→B at 10 μM in data set [1] (Caco-2, TC7 monolayers, 10 μM compound, mean of 2 independent experiments, read-out: permeability A-B) worked out at 3.8 ×10⁻⁶ cm/s. Besides, the Papp B→A at 10 μM in data set [1] (Caco-2, TC7 monolayers, 10 μM compound, mean of 2 independent experiments, read-out: permeability B-A) was 37.1 ×10⁻⁶ cm/s; in the data set with Pgp it was 32.2 ×10⁻⁶ cm/s. For the same compound, the inhibition at 1 mg/kg was determined as 84.7 ± 0.3% at FAAH (Mice, 1 mg/Kg i.p., Colon, read-out: % of FAAH inhibition, Colon); 84.3 ± 1.4% at FAAH (Mice, 1 mg/Kg i.p., Duodenum, read-out: % of FAAH inhibition, Duodenum); 18.4 ± 13.8% at FAAH (Mice, 1 mg/Kg i.p., Hypothalamus, read-out: % of FAAH inhibition, Hypothalamus); 86.8 ± 2.4% on FAAH (Mice, 1 mg/Kg i.p., Illeum, read-out: % of FAAH inhibition, Illeum); 90 ± 1.4% on FAAH (Mice, 1 mg/Kg i.p., Jejunum, read-out: % of FAAH inhibition, Jejunum); 88.3 ± 1% on FAAH (Mice, 1 mg/Kg i.p., Kidney, read-out: % of FAAH inhibition, Kidney). The inhibition at 1 mg/kg at FAAH (Mice, 1 mg/Kg i.p., Liver, read-out: % of FAAH inhibition, Liver) is 91.7 ± 0.7%; on FAAH (Mice, 1 mg/Kg i.p., Spinal cord, read-out: % of FAAH inhibition, Spinal cord) it was 17.7 ± 10.6%; on FAAH (Mice, 1 mg/Kg i.p., Spleen, read-out: % of FAAH inhibition, Spleen), 72.5 ± 0.7%; at FAAH (ex vivo 1 h after a single injection in mice (1 mg-kg^-1, i.p.), brain, read-out: FAAH Inhibition in brain (%)) it was -3 ± 8%.

A word on the inhibition: it is the relative decrease from the control value, in per cent.
